Data: US11497212B2, “Substituted thiophenyl uracils, salts thereof and the use thereof as herbicidal agents” (Syngenta Crop Protection AG, priority 2017, dated 2022)

Tests used:
Assay type in all cases: in vivo
Abutilon theophrasti [1] = test: Herbicidal action post-emergence (greenhouse pot trial); conditions: scored visually after about 3 weeks vs untreated controls
In short: (§1)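 Post-emergence spray at one-leaf stage (2–3 wk after sowing, sandy loam, greenhouse); WP/EC in water + 0.5% additive; 600 L/ha; rate 80 g/ha or less. Visual % efficacy at ~3 wk vs untreated (100 = dead).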

Alopecurus myosuroides [2] = test: as above; conditions: application rate 80 g/ha, scored visually after about 3 weeks vs untreated controls
In short: as §1

Amaranthus retroflexus [3] = test: as above; conditions: scored visually after about 3 weeks vs untreated controls
In short: as §1

Avena fatua [4] = test: as above; conditions: application rate 80 g/ha, scored visually after about 3 weeks vs untreated controls
In short: as §1

Echinochloa crus-galli [5] = test: as above; conditions: scored visually after about 3 weeks vs untreated controls
In short: as §1

Matricaria inodora [6] = test: as above; conditions: scored visually after about 3 weeks vs untreated controls
In short: as §1

Pharbitis purpurea [7] = test: as above; conditions: application rate 80 g/ha
In short: as §1

Polygonum convolvulus = test: as above; conditions: scored visually after about 3 weeks vs untreated controls
In short: as §1

Setaria viridis [8] = test: as above; conditions: scored visually after about 3 weeks vs untreated controls
In short: as §1

Stellaria media [9] = test: as above; conditions: scored visually after about 3 weeks vs untreated controls
In short: as §1

Veronica persica [10] = test: as above
In short: as §1

Viola tricolor [11] = test: as above
In short: as §1

Zea mays [12] = test: Crop compatibility post-emergence (greenhouse pot trial); conditions: application rate 80 g/ha
In short: (§2)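 Crops grown in sandy loam in greenhouse, sprayed at one-leaf stage (2–3 weeks after sowing) with WP or EC formulations in water plus 0.5% additive, 600 L/ha. Damage scored visually after about 3 weeks versus untreated controls, 0% = like control, 100% = dead.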

Abutilon theophrasti [13] = test: Herbicidal action pre-emergence (greenhouse pot trial); conditions: application rate 320 g/ha, scored after about 3 weeks
In short: (§3)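 Pre-emergence soil-surface spray, 320 g/ha or lower, WP/EC formulations in water with 0.5% additive, 600 L/ha. Greenhouse, ~3 wk. Visual % efficacy vs untreated controls (100% = plants dead, 0% = like control).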

Alopecurus myosuroides [14] = test: as above; conditions: application rate 320 g/ha, scored after about 3 weeks
In short: as §3

Amaranthus retroflexus [15] = test: as above; conditions: application rate 320 g/ha, scored after about 3 weeks
In short: as §3

Avena fatua [16] = test: as above; conditions: application rate 320 g/ha
In short: as §3

Echinochloa crus-galli [17] = test: as above; conditions: application rate 320 g/ha, scored after about 3 weeks
In short: as §3

Matricaria inodora [18] = test: as above; conditions: application rate 320 g/ha, scored after about 3 weeks
In short: as §3

Pharbitis purpurea [19] = test: as above; conditions: application rate 320 g/ha
In short: as §3

Setaria viridis [20] = test: as above; conditions: application rate 320 g/ha, scored after about 3 weeks
In short: as §3

Stellaria media [21] = test: as above; conditions: application rate 320 g/ha, scored after about 3 weeks
In short: as §3

Veronica persica [22] = test: as above; conditions: application rate 320 g/ha
In short: as §3

Viola tricolor [23] = test: as above; conditions: application rate 320 g/ha, scored after about 3 weeks
In short: as §3

Oryza sativa [24] = test: Crop compatibility pre-emergence (greenhouse pot trial); conditions: effect vs untreated controls
In short: (§4)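 Pre-emergence: seeds sown in pots, covered with soil, then WP or EC formulations sprayed on soil surface as aqueous suspension/emulsion with 0.5% additive at 600 L/ha water. Greenhouse; crop damage scored visually as % versus untreated controls after about 3 weeks (100% = dead).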

Zea mays [25] = test: as above; conditions: effect vs untreated controls
In short: as §4

Oryza sativa [26] = test: Crop compatibility post-emergence (greenhouse pot trial)
In short: as §2

Triticum aestivum = test: as above; conditions: application rate 20 g/ha
In short: as §2

Cyperus esculentus = test: Herbicidal action pre-emergence (greenhouse pot trial); conditions: application rate 320 g/ha
In short: as §3

Hordeum murinum = test: as above; conditions: application rate 320 g/ha
In short: as §3

Lolium rigidum [27] = test: as above
In short: as §3

Glycine max [28] = test: Crop compatibility pre-emergence (greenhouse pot trial); conditions: effect vs untreated controls
In short: as §4

Lolium rigidum [29] = test: Herbicidal action post-emergence (greenhouse pot trial); conditions: application rate 20 g/ha, scored visually after about 3 weeks vs untreated controls
In short: as §1

Glycine max [30] = test: Crop compatibility post-emergence (greenhouse pot trial); conditions: application rate 20 g/ha
In short: as §2

| SMILES | Abutilon theophrasti (Efficacy in %) (Abutilon theophrasti [1]; application rate 80 g/ha) [%] | Alopecurus myosuroides (Efficacy in %) (Alopecurus myosuroides [2]) [%] | Amaranthus retroflexus (Efficacy in %) (Amaranthus retroflexus [3]; application rate 80 g/ha) [%] | Matricaria inodora (Efficacy in %) (Matricaria inodora [6]; application rate 80 g/ha) [%] | Pharbitis purpurea (Efficacy in %) (Pharbitis purpurea [7]) [%] | Polygonum convolvulus (Efficacy in %) (Polygonum convolvulus; application rate 80 g/ha) [%] | Setaria viridis (Efficacy in %) (Setaria viridis [8]; application rate 80 g/ha) [%] | Stellaria media (Efficacy in %) (Stellaria media [9]; application rate 80 g/ha) [%] | Zea mays (Efficacy in %) (Zea mays [12]) [%] | Abutilon theophrasti (Efficacy in %) (Abutilon theophrasti [13]) [%] | Alopecurus myosuroides (Efficacy in %) (Alopecurus myosuroides [14]) [%] | Amaranthus retroflexus (Efficacy in %) (Amaranthus retroflexus [15]) [%] | Avena fatua (Efficacy in %) (Avena fatua [16]) [%] | Echinochloa crus-galli (Efficacy in %) (Echinochloa crus-galli [17]) [%] | Matricaria inodora (Efficacy in %) (Matricaria inodora [18]) [%] | Pharbitis purpurea (Efficacy in %) (Pharbitis purpurea [19]) [%] | Setaria viridis (Efficacy in %) (Setaria viridis [20]) [%] | Stellaria media (Efficacy in %) (Stellaria media [21]) [%] | Veronica persica (Efficacy in %) (Veronica persica [22]) [%] | Viola tricolor (Efficacy in %) (Viola tricolor [23]) [%] | other results |
| --- | --- | --- | --- | --- | --- | --- | --- | --- | --- | --- | --- | --- | --- | --- | --- | --- | --- | --- | --- | --- | --- |
| Cn1c(C(F)(F)F)cc(=O)n(-c2cc(SCC(=O)NCC3CCCO3)c(Cl)cc2F)c1=O (stereo not drawn) [I.8-271] | 100 | 100 | 100 | 100 | 100 | 100 | 100 | 100 | 20 | 100 | 90 | 100 | 90 | 80 | 100 | 100 | 100 | 90 | 100 | 100 | Avena fatua (Efficacy in %) (Avena fatua [4]): 90%; Echinochloa crus-galli (Efficacy in %) (Echinochloa crus-galli [5]; application rate 80 g/ha): 80%; Veronica persica (Efficacy in %) (Veronica persica [10]; application rate 80 g/ha): 100%; Viola tricolor (Efficacy in %) (Viola tricolor [11]; application rate 80 g/ha): 100%; Oryza sativa (Efficacy in %) (Oryza sativa [24]; application rate 80 g/ha): 0%; Zea mays (Efficacy in %) (Zea mays [25]; application rate 80 g/ha): 20% |
| CC(Sc1cc(-n2c(=O)cc(C(F)(F)F)n(C)c2=O)c(F)cc1Cl)C(=O)NCC1(C)CCCO1 (stereo not drawn) [I.1-224] | 100 | 80 | 100 | 100 | 100 | 100 | 100 | 80 | 20 | 100 | 100 | 100 | 100 | 100 | 100 | 100 | 100 | 100 | 100 | 100 | Veronica persica (Efficacy in %) (Veronica persica [10]; application rate 80 g/ha): 100%; Viola tricolor (Efficacy in %) (Viola tricolor [11]; application rate 80 g/ha): 100%; Oryza sativa (Efficacy in %) (Oryza sativa [26]; application rate 20 g/ha): 10%; Triticum aestivum (Efficacy in %) (Triticum aestivum): 20%; Cyperus esculentus (Efficacy in %) (Cyperus esculentus): 90%; Hordeum murinum (Efficacy in %) (Hordeum murinum): 100%; Lolium rigidum (Efficacy in %) (Lolium rigidum [27]; application rate 320 g/ha): 100%; Glycine max (Efficacy in %) (Glycine max [28]; application rate 20 g/ha): 0%; Oryza sativa (Efficacy in %) (Oryza sativa [24]; application rate 20 g/ha): 0%; Zea mays (Efficacy in %) (Zea mays [25]; application rate 20 g/ha): 0% |
| CSCCNC(=O)C(C)Sc1cc(-n2c(=O)cc(C(F)(F)F)n(C)c2=O)c(F)cc1Cl (stereo not drawn) [I.1-181] | – | 80 | – | – | – | – | – | – | 20 | 100 | 100 | 100 | 100 | 100 | 100 | 100 | 100 | 100 | 100 | 100 | Abutilon theophrasti (Efficacy in %) (Abutilon theophrasti [1]; application rate 20 g/ha): 100%; Amaranthus retroflexus (Efficacy in %) (Amaranthus retroflexus [3]; application rate 20 g/ha): 100%; Echinochloa crus-galli (Efficacy in %) (Echinochloa crus-galli [5]; application rate 20 g/ha): 100%; Lolium rigidum (Efficacy in %) (Lolium rigidum [29]): 80%; Matricaria inodora (Efficacy in %) (Matricaria inodora [6]; application rate 20 g/ha): 100%; Polygonum convolvulus (Efficacy in %) (Polygonum convolvulus; application rate 20 g/ha): 100%; Setaria viridis (Efficacy in %) (Setaria viridis [8]; application rate 20 g/ha): 100%; Stellaria media (Efficacy in %) (Stellaria media [9]; application rate 20 g/ha): 100%; Veronica persica (Efficacy in %) (Veronica persica [10]; application rate 20 g/ha): 100%; Viola tricolor (Efficacy in %) (Viola tricolor [11]; application rate 20 g/ha): 100%; Glycine max (Efficacy in %) (Glycine max [30]): 20%; Oryza sativa (Efficacy in %) (Oryza sativa [26]; application rate 80 g/ha): 10%; Triticum aestivum (Efficacy in %) (Triticum aestivum): 20%; Hordeum murinum (Efficacy in %) (Hordeum murinum): 90%; Lolium rigidum (Efficacy in %) (Lolium rigidum [27]; application rate 80 g/ha): 100%; Glycine max (Efficacy in %) (Glycine max [28]; application rate 80 g/ha): 20%; Oryza sativa (Efficacy in %) (Oryza sativa [24]; application rate 20 g/ha): 0%; Zea mays (Efficacy in %) (Zea mays [25]; application rate 20 g/ha): 0% |
